In data set [1] the test system is human induced pluripotent stem cells. Further details: method as in PMID 30982602. The note with it: cited from earlier work.
In data set [2] the test system is C57BL/6J gptΔ mouse embryonic fibroblasts (MEFs). Nature of the data set: Duplex sequencing, high-resolution mutational spectra of MEFs treated with alkylating agents. The class given is cell-based. Conditions: for predominant mutation type of mutational spectrum: doses generating no more than 50% growth inhibition; for cosine similarity of mutational spectra: with each other, with NDMA spectra from WT liver and lung, Mgmt-deficient liver, and COSMIC SBS11. The protocol: C57BL/6J gptΔ mouse embryonic fibroblasts (MEFs) were established and maintained in high glucose, GlutaMAX DMEM (Gibco) supplemented with 10% FBS (VWR Life Sciences), sodium pyruvate (1 mM, Gibco), penicillin (100 IU) and streptomycin (100 μg/ml) (Corning) as previously described ([40]). […] For growth-inhibition assays, 2.5 × 10^4 cells were seeded in 6-well plates and incubated overnight. Cells were treated with SN1 alkylating agents as follows. TMZ (Sigma-Aldrich): 50, 100 and 200 μM (stock solutions in DMSO (Sigma-Aldrich)) in FBS-free complete media for 24 h. STZ (Sigma-Aldrich): 500, 1000 and 2000 μM (stock solutions in 0.1 M citrate buffer, pH 4.5) in HBSS, pH 7.4 for 6 h. MNU (Sigma-Aldrich): 125, 250 and 500 μM (stock solutions in 0.1 M citrate buffer, pH 4.5) in HBSS, pH 7.4 for 1 h. After the treatments, cells were washed in PBS (Gibco) and cultured in complete media for another 48 h. Cell growth was analyzed by determining percentages of cell numbers from treatment and untreated control groups by Coulter counter. For gpt assays, 4 × 10^5 cells were seeded into 15 cm tissue culture dishes (4 dishes per group) and treated with TMZ, STZ and MNU, as described above, at 60–70% confluence. Viable cells were harvested and washed twice in PBS.
The gptΔ assay as described above was also performed on MEFs derived from the gptΔ mouse (see above) that were treated with the toxicants studied here. For the cell culture studies, genomic DNA from 2 × 10^6 cells per group was prepared using the MegaLong DNA Isolation Kit (G-Biosciences) according to the manufacturer's instructions.
To determine the identity of mutations and the sequence contexts in which they occur, we utilized a form of error-corrected sequencing called duplex sequencing (DS). Previously, we described how DS can be used directly on genomic samples derived from the gptΔ mouse to yield high-resolution mutational spectra in an unbiased (unselected) manner ([49]). Unlike the traditional gptΔ assay, DS evaluates the mutations throughout the entire 6382 bp transgenic region (which contains the gpt gene), without the need for a phenotypic selection. In the present work, 6.4 kb gpt-containing plasmids from gptΔ mouse livers and cell culture were isolated using a Miniprep Kit (Qiagen) following instructions of the manufacturer. Approximately 6 μg of plasmid DNA was diluted in 1× TE buffer-low EDTA, pH 8 (Thermo Scientific), transferred to a microTUBE AFA Fiber Pre-Slit Snap-Cap (Covaris) and sonicated using a Covaris E220 Focused-ultrasonicator. The following program was used to obtain 300–350 bp fragments: peak incident power = 140 W, duty factor = 10%, cycles per burst = 200, treatment time = 80 s, temperature = 4–7°C. DS libraries for gptΔ C57BL/6J mice and MEFs were prepared using the NEBNext Ultra II DNA Library Prep (E7103, NEB) or as described in Chawanthayatham et al. ([49]) and sequenced on a NextSeq500 or NovaSeq 6000 Illumina platform by using a 150 bp paired-end protocol (MIT BioMicro Center). DS libraries for the gptΔ mouse lungs and Mgmt^−/− mice were prepared using an input of 1 μg or 500 ng genomic DNA, respectively, using a TwinStrand Biosciences, Inc. Mouse Mutagenesis Kit according to the manufacturer's protocol. This kit uses probes that hybridize to 20 genomic regions, each 2.4 kb long. The genomic coordinates are provided in Supplementary Table S1. These probes were purposely selected to map in intronic and intergenic regions, to avoid selection bias. The libraries were sequenced on an Illumina NovaSeq 6000 DNA sequencer on an S4 flow cell using a 150 bp paired-end protocol (MIT BioMicro Center).
For each sample, the two fastq files generated by the Illumina sequencer were converted into an unaligned bam file, using Picard Tools. The resulting bam file was processed using UnifiedConsensusMaker.py (version 3.0) as available from the Kennedy Lab at University of Washington (https://github.com/Kennedy-Lab-UW/Duplex-Sequencing). […]

Structures are written as SMILES. A value given as a limit tells only on which side of the number the result lay.

`CN(N=O)C(N)=O` [MNU, N-methyl-N-nitrosourea]: the “dominant mutation type of mutational spectrum” value in data set [1] is on record as “AT→GC mutations”. Further, in data set [2], the “sequence context of mutations” value is on record as 5’-PuGN-3’, the “predominant mutation type of mutational spectrum” value (“predominant mutation type” below) is reported as “GC→AT mutations” and the “cosine similarity of mutational spectra” value was greater than 0.9.

For `CN(N=O)C(=O)NC1C(O)OC(CO)C(O)C1O` (centres unmarked) [STZ, streptozotocin], in data set [2], the “sequence context of mutations” value is 5’-PuGN-3’, the “predominant mutation type” value was “GC→AT mutations” and the “cosine similarity of mutational spectra” value is greater than 0.9.

As to `Cn1nnc2c(C(N)=O)ncn2c1=O` [TMZ, temozolomide], the “dominant mutation type of mutational spectrum” value in data set [1] is “AT→GC mutations”. Further, in data set [2], the “sequence context of mutations” value is listed as 5’-PuGN-3’, the “predominant mutation type” value is on record as “GC→AT mutations” and the “cosine similarity of mutational spectra” value is reported as greater than 0.9.

(Values after article PMC10041537, “Molecular origins of mutational spectra produced by the environmental carcinogen N-nitrosodimethylamine and SN1 chemotherapeutic agents” (NAR Cancer, 2023).)
